Series [1] is described as follows: Thermodynamic solubility assay. To be noted: aqueous buffer, thermodynamic from solid, DPBS pH=7.4, 48 h, ambient temperature. The class given is physicochemical. How it is done:
Briefly, a saturated solution was made by adding DPBS to the solid compound. The mixture was shaken at 200 rpm for 48 h in a MaxQ 6000 orbital shaker at ambient temperature to allow equilibrium between the solid and dissolved compound. The suspension was then filtered through a 0.45 μm PVDF syringe filter and the filtrate was collected for analysis using UV spectrometry (SpectraMax M5e, Molecular Devices) at λ=240 nm.

The nature of series [2]: Caco-2 permeability assay. To be noted: human, pH 7.4. The series is classed as in vitro ADME. How it is done: Cell Culture. The human colon adenocarcinoma cell line Caco-2 was purchased from ATCC (American Type Culture Collection, Manassas, Va.), and was cultured in a humidified atmosphere of 5% CO2 at 37° C. Caco-2 cells were cultured in DMEM with 10% FBS, 1% NEAA, 1% GlutaMax and 1% penicillin and streptomycin solution. The culture medium was changed every other day during cell growth and differentiation. On achieving 80-90% confluence, the cells were rinsed with pre-warm DPBS (pH 7.4) and split using trypsin. The cells were then seeded on membranes of Millipore Millicell-24 cell culture device. The transepithelial electrical resistance (TEER) were assessed to reflect membrane integrity using a Millicells® ERS-2 (Millipore, USA). The Caco-2 cell monolayers were used for transport experiments on day 21 post-seeding with TEER values >500 Ω·cm2. Bidirectional Transport Experiments. Before the transport experiments, the cell monolayer was washed three times with HBSS. Then, the plates were incubated in fresh permeability assay buffer (HBSS containing 10 mM glucose and 20 mM HEPES, pH 7.4) at 37° C. The experiments were conducted by spiking test compounds to either the apical (AP, 0.4 mL) or basolateral side (BL, 0.8 mL), while the receiving chamber contained the corresponding volume of pre-warmed permeability assay buffer. Every experiment was repeated in duplicate, and the plates were incubated in an orbital shaker at 37° C., 50 rpm/min. To assess the drug transport, at the incubation time of 20, 40, 60 and 80 min, aliquot was removed and was immediately replenished with an equal volume of permeability assay buffer. The samples were then subjected to LC/MS/MS analysis. The apparent permeability coefficient was indicated by the absorption rate constant Papp. It could be calculated as PBA (measured in BL to AP direction) or PAB (measured in AP to BL direction), using the equation of Papp=(dQ/dt)/(A×C0). dQ/dt is the rate at which the compound appears in the receiver chamber (nmol/s), A is the surface area of the filter membrane (0.7 cm2) and C0 is the initial concentration in the donor chamber (μM). Efflux ratio (ER) was calculated by the equation of ER=PBA/PAB, where PBA is the Papp value measured in BL to AP direction, and PAB is the Papp value measured in AP to BL direction.
On the technique in general: Caco-2 cells form a polarised layer with tight junctions and transporters.

The test system of series [3] is MCF10A cells (normal human mammary cells). Nature of the series: Cell viability assay (MTT) in MCF10A cells. To be noted: MCF-10A, 72 h. The class given is cell-based. The protocol:
MCF10A cells are maintained in minimum essential medium (MEM) (Invitrogen 11095) supplemented with 10% FBS (Invitrogen 16000), 1% 10× non-essential amino acids (NEAA) (Invitrogen 11140), 1% Penicillin/Streptomycin (Invitrogen 15140), 1% GlutaMAX (Invitrogen 35050-061), 20 ng/mL EGF, […] hydrocortisone, 100 ng/mL cholera toxin, 10 μg/mL insulin.
Cells were plated in 96-well plates at 25×10^4 cells/ml. After 24 hours, compounds were added at 9, 3× dilutions in triplicate from 100 uM final concentration in the appropriate growth media. Plates were incubated for 72 hours at 37° C. in a 5% CO2/95% air humidified atmosphere after which time the media was removed and MTT was added in RPMI phenol red free media. The MTT was removed after 3 hours and formazan crystals were solubilized with 200 μL of isopropanol. Plates were read on a Molecular Devices SpectraMax i3 spectrophotometer at 570 nm for formazan and 690 nm for background subtraction. EC50 values were calculated by fitting the data in GraphPad Prism software.

Series [4] can be described thus: Plasma stability assay, mouse plasma. The class given is in vitro ADME. Particulars: 37° C., 24 h. The protocol: (§1) The plasma stability assay was performed in triplicate by incubating a compound in normal mouse and human plasma at 37° C. At 0, 1, 3, 6, and 24 h, aliquots of the plasma mixture were taken and quenched with 3 volumes of acetonitrile containing an appropriate internal standard. The samples were then vortexed and centrifuged at 14,000 rpm for 5 min. The supernatants were collected and analyzed by LC-MS/MS to determine the remaining percentage at various time points.
(§2) Quantification and analysis of compounds in biological samples were carried out on an AB Sciex QTrap 5500 mass spectrometer coupled with an Agilent 1260 Infinity HPLC. The chromatographic separation of compounds was achieved using a Phenomenex Kinetex C18 column (50×2.1 mm, 2.6 μm), and MS/MS analysis was conducted using an ESI ion source with MRM detection. The MS/MS detection parameters including declustering potential (DP), entrance potential (EP), collision energy (CE), and collision cell exit potential (CXP) were optimized for each compound.

The subject of series [5] is MIA PaCa-2 cells. Kind of series: Cell viability assay (MTT) in MIA PaCa-2 cells. The series is classed as cell-based. To be noted: Homo sapiens, antiproliferative activity, 72 h. The method, boiled down:
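MIA PaCa-2 cells exposed 72 h at 37° C to 2-fold serial compound dilutions from 100 μM final, 0.5% DMSO, in triplicate. Viability by MTT (3 h), formazan read at 570 nm minus 650 nm; EC50 from curve fit.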

Series [6] can be described thus: Microsomal stability assay, mouse liver microsomes. The class given is in vitro ADME. Particulars: pH 7.4; mouse liver microsomes 0.5 mg/mL, 1 mM NADPH, 1 μM compound; read-out: Microsomal Stability t1/2 Mouse. How it is done:
(§3) The in vitro microsomal stability assay was conducted in triplicate in mouse and human liver microsomal systems. In a typical incubation, a compound (typically 1 μM final concentration) was spiked into the reaction mixture containing 0.5 mg/mL of liver microsomal protein and 1 mM of NADPH in 0.1 M potassium phosphate buffer (pH 7.4) at 37° C. At various time points, 1 volume of reaction aliquot was taken and quenched with 3 volumes of acetonitrile with an appropriate internal standard. The samples were then vortexed and centrifuged at 14,000 rpm for 5 min. The supernatants were collected and analyzed by LC-MS/MS to determine the in vitro metabolic half-life (t1/2) and intrinsic clearance (CLint). Verapamil was used as a positive control.
as §2
A general note: Liver microsomes are vesicles of endoplasmic reticulum, rich in cytochrome P450 enzymes.

Series [7] in a line: Plasma stability assay, human plasma. The series is classed as in vitro ADME. To be noted: 37° C., 24 h. How it is done:
as §1, §2

Series [8] can be described thus: Microsomal stability assay, human liver microsomes. The series is classed as in vitro ADME. To be noted: pH 7.4; human liver microsomes 0.5 mg/mL, 1 mM NADPH, 1 μM compound; read-out: Microsomal Stability t1/2 Human. How it is done: as §3, §2

Values after ≈ are worked out from the molar mass of the structure shown.

What is called solubility is the dissolved amount per volume that the medium holds. The Papp A→B is how fast a substance crosses the layer from the apical side. Read a low Papp A→B as poor permeation. What is called Papp B→A is the apparent permeability from the basolateral to the apical side of a cell layer. As usually defined, the EC50 is the concentration giving half of the maximal effect. Low values mean an effect from little substance, high ones a need for much substance. Consider `CNC(=O)c1cc(Cn2nc(C)c(NC(=O)c3ccc(COc4ccc(C(F)(F)F)cc4C)cc3)c2C)ccn1` [Compound E2b, 4-((3,5-Dimethyl-4-(4-((2-methyl-4-(trifluoromethyl)phenoxy)methyl)benzamido)-1H-pyrazol-1-yl)methyl)-N-methylpicolinamide], for which the concentration in solution in series [1] (solubility at 48 h) was 211 ± 5 µM (≈ 116 µg/mL). Moreover, the Papp A→B at 80 min in series [2] (apical to basolateral) worked out at 8.34 ×10⁻⁶ cm/s. In addition, the Papp B→A at 80 min in series [2] (basolateral to apical) came out at 5.96 ×10⁻⁶ cm/s. The EC50 in series [3] was found to be 7.4 µM; in series [5] it was 0.33 µM. The “Plasma Stability (% remaining, 6 h/24 h) Mouse” value in series [4] is listed as “—/84%”. Moreover, the half-life at 1 μM in series [6] and in series [8] was 1.48 h throughout. Further, in series [7], the “Plasma Stability (% remaining, 6 h/24 h) Human” value is given as “—/100%”.

Values taken from patent US10357477B2, “Anticancer compounds” (REGENTS OF THE UNIVERSITY OF MINNESOTA, priority 2016, dated 2019).
